Results reported in patent publication US20190314382A1, “COMPOUNDS AND PHARMACEUTICAL COMPOSITIONS THEREOF FOR THE TREATMENT OF INFLAMMATORY DISEASES” (Galapagos NV, priority 2016, published 2019).

Tests used:
Format in all cases: in vivo, human
Details in all cases: observed case
IL-8 = assay: Biomarker study in RA subjects: serum IL-8, Luminex 18-Plex
Method: (§1) Double-blind, placebo-controlled add on study in subjects with moderately to severely active RA who have an inadequate response to MTX (oral or parenteral).
(§2) 595 subjects randomized to one of 6 dose regimens of Compound 1 (dosed as a [Compound 1:HCl:3H2O]) (3 dose levels administered either once or twice daily) or placebo on top of each subject's stable dose of MTX.
(§3) Compound 1 (dosed as a [Compound 1:HCl:3H2O]) is dosed for twelve weeks once daily (q.d.) (50 mg, 100 mg or 200 mg) or twice daily (b.i.d.) (25 mg, 50 mg or 100 mg); or placebo.
(§4) 18 parameters from human serum samples (GM-CSF, IFNγ, IL-1β, IL-2, IL-4, IL-5, IL-6, IL-7, IL-8, IL-10, IL-12 (p70), IL-13, IL-17A, IL-21, IL-23, MIP-1α, MIP-1β and TNF-α) are analyzed on a Luminex Plateform (BioPlex® L200) using a Luminex 18-Plex Kit (Millipore: HSTCMAG-28SK).
(§5) Coupled beads react with the sample containing the biomarker of interest. […] Phycoerythrin (PE) serves as a fluorescent indicator.
(§6) The concentration of bead bound analyte is proportional to the MFI (Median Fluorescent Intensity) and back-calculated from interpolation with the calibration curve fitted with a 4 or 5 parameters logistic (4PL or 5PL) regression model selected during method pre-validation.
(§7) Treatment effect was assessed using an ANCOVA model on the changes from baseline, with factors: treatment, baseline value of the PD marker, geographical region and previous use of biologics.

IL-21 = assay: Biomarker study in RA subjects: serum IL-21, Luminex 18-Plex
Method: as §1, §2, §3, §4, §5, §6, §7

IL-12 (p70) = assay: Biomarker study in RA subjects: serum IL-12, Luminex 18-Plex
Method: as §1, §2, §3, §4, §5, §6, §7

IFNγ = assay: Biomarker study in RA subjects: serum IFNγ, Luminex 18-Plex
Method: as §1, §2, §3, §4, §5, §6, §7

IL-13 = assay: Biomarker study in RA subjects: serum IL-13, Luminex 18-Plex
Method: as §1, §2, §3, §4, §5, §6, §7

IL-7 = assay: Biomarker study in RA subjects: serum IL-7, Luminex 18-Plex
Method: as §1, §2, §3, §4, §5, §6, §7

IL-23 = assay: Biomarker study in RA subjects: serum IL-23, Luminex 18-Plex
Method: as §1, §2, §3, §4, §5, §6, §7

[1] = 50 mg bid, Week 4, N = 73, RA subjects on MTX
[2] = 50 mg bid, Week 12, N = 73, RA subjects on MTX
[3] = 100 mg bid, Week 4, N = 79, RA subjects on MTX
[4] = 100 mg bid, Week 12, N = 79, RA subjects on MTX
[5] = 100 mg qd, Week 4, N = 68, RA subjects on MTX
[6] = 100 mg qd, Week 12, N = 68, RA subjects on MTX
[7] = 200 mg qd, Week 4, N = 75, RA subjects on MTX
[8] = 200 mg qd, Week 12, N = 75, RA subjects on MTX

O=C(Nc1nc2cccc(-c3ccc(CN4CCS(=O)(=O)CC4)cc3)n2n1)C1CC1 [Compound 1, cyclopropanecarboxylic acid {5-[4-(1,1-dioxo-thiomorpholin-4-ylmethyl)-phenyl]-[1,2,4]triazolo[1,5-a]pyridin-2yl}-amide]
IL-8 Mean change from baseline at Week 4 (IL-8; [1]): 2.3 pg/mL
IL-8 Mean change from baseline at Week 12 (IL-8; [2]): 6.9 pg/mL
IL-8 Mean change from baseline at Week 4 (IL-8; [3]): -1.8 pg/mL
IL-8 Mean change from baseline at Week 12 (IL-8; [4]): 2.4 pg/mL
IL-8 Mean change from baseline at Week 4 (IL-8; [5]): 4.1 pg/mL
IL-8 Mean change from baseline at Week 12 (IL-8; [6]): 0.7 pg/mL
IL-8 Mean change from baseline at Week 4 (IL-8; [7]): -2.0 pg/mL
IL-8 Mean change from baseline at Week 12 (IL-8; [8]): -1.6 pg/mL
IL-21 Mean change from baseline at Week 4 (IL-21; [1]): -0.1 pg/mL
IL-21 Mean change from baseline at Week 12 (IL-21; [2]): -1.6 pg/mL
IL-21 Mean change from baseline at Week 4 (IL-21; [3]): -1.6 pg/mL
IL-21 Mean change from baseline at Week 12 (IL-21; [4]): -2.8 pg/mL
IL-21 Mean change from baseline at Week 4 (IL-21; [5]): -0.3 pg/mL
IL-21 Mean change from baseline at Week 12 (IL-21; [6]): 0.5 pg/mL
IL-21 Mean change from baseline at Week 4 (IL-21; [7]): -1.4 pg/mL
IL-21 Mean change from baseline at Week 12 (IL-21; [8]): -2.3 pg/mL
IL-12 Mean change from baseline at Week 4 (IL-12 (p70); [1]): -1.9 pg/mL
IL-12 Mean change from baseline at Week 12 (IL-12 (p70); [2]): -2.3 pg/mL
IL-12 Mean change from baseline at Week 4 (IL-12 (p70); [3]): -2.3 pg/mL
IL-12 Mean change from baseline at Week 12 (IL-12 (p70); [4]): -3.9 pg/mL
IL-12 Mean change from baseline at Week 4 (IL-12 (p70); [5]): -0.2 pg/mL
IL-12 Mean change from baseline at Week 12 (IL-12 (p70); [6]): -1.2 pg/mL
IL-12 Mean change from baseline at Week 4 (IL-12 (p70); [7]): -1.7 pg/mL
IL-12 Mean change from baseline at Week 12 (IL-12 (p70); [8]): 20.5 pg/mL
IFNγ Mean change from baseline at Week 4 (IFNγ; [1]): 1.6 pg/mL
IFNγ Mean change from baseline at Week 12 (IFNγ; [2]): -3.4 pg/mL
IFNγ Mean change from baseline at Week 4 (IFNγ; [3]): -3.3 pg/mL
IFNγ Mean change from baseline at Week 12 (IFNγ; [4]): -5.8 pg/mL
IFNγ Mean change from baseline at Week 4 (IFNγ; [5]): -3.8 pg/mL
IFNγ Mean change from baseline at Week 12 (IFNγ; [6]): -6.6 pg/mL
IFNγ Mean change from baseline at Week 4 (IFNγ; [7]): 0.5 pg/mL
IFNγ Mean change from baseline at Week 12 (IFNγ; [8]): -3.1 pg/mL
IL-13 Mean change from baseline at Week 4 (IL-13; [1]): -0.6 pg/mL
IL-13 Mean change from baseline at Week 12 (IL-13; [2]): -1.1 pg/mL
IL-13 Mean change from baseline at Week 4 (IL-13; [3]): -1.5 pg/mL
IL-13 Mean change from baseline at Week 12 (IL-13; [4]): -2.9 pg/mL
IL-13 Mean change from baseline at Week 4 (IL-13; [5]): -0.6 pg/mL
IL-13 Mean change from baseline at Week 12 (IL-13; [6]): -1.5 pg/mL
IL-13 Mean change from baseline at Week 4 (IL-13; [7]): -0.9 pg/mL
IL-13 Mean change from baseline at Week 12 (IL-13; [8]): -2.2 pg/mL
IL-7 Mean change from baseline at Week 4 (IL-7; [1]): -1.8 pg/mL
IL-7 Mean change from baseline at Week 12 (IL-7; [2]): -2.6 pg/mL
IL-7 Mean change from baseline at Week 4 (IL-7; [3]): -2.7 pg/mL
IL-7 Mean change from baseline at Week 12 (IL-7; [4]): -3.0 pg/mL
IL-7 Mean change from baseline at Week 4 (IL-7; [5]): -0.4 pg/mL
IL-7 Mean change from baseline at Week 12 (IL-7; [6]): -1.2 pg/mL
IL-7 Mean change from baseline at Week 4 (IL-7; [7]): -2.5 pg/mL
IL-7 Mean change from baseline at Week 12 (IL-7; [8]): -3.3 pg/mL
IL-23 Mean change from baseline at Week 4 (IL-23; [1]): -772.1 pg/mL
IL-23 Mean change from baseline at Week 12 (IL-23; [2]): -888.7 pg/mL
IL-23 Mean change from baseline at Week 4 (IL-23; [3]): -273.6 pg/mL
IL-23 Mean change from baseline at Week 12 (IL-23; [4]): -831.6 pg/mL
IL-23 Mean change from baseline at Week 4 (IL-23; [5]): 38.3 pg/mL
IL-23 Mean change from baseline at Week 12 (IL-23; [6]): -337.9 pg/mL
IL-23 Mean change from baseline at Week 4 (IL-23; [7]): -435.8 pg/mL
IL-23 Mean change from baseline at Week 12 (IL-23; [8]): -949.7 pg/mL
